{"source": "patent US8569383B2", "about": "“Utilization of rhinologically active substances” (Symrise AG, priority 2000, dated 2013)", "test": "Sensory test of toothpaste with eucalyptus menthol type flavoring by trained expert panel", "type": "in vivo", "conditions": "compared with 1-menthyl methyl ether", "method": "Production of a Toothpaste Flavoring of the Eucalyptus Menthol Type, Using Menthyl Methyl Ether\nThe following were mixed:\nIn a second mixture batch, the 1,8-cineole (eucalyptol) content was replaced by 1-menthyl methyl ether. Both flavorings are incorporated at a concentration of 1.3% by weight into a standard toothpaste mix based on silicic acid. Both types of toothpaste were tested under conditions of practice by an expert panel trained in sensory testing.", "data": [{"compound": "COC(C)C1CCCC(C)(C)C1", "note": "(stereo not drawn) [1-(3,3-Dimethylcyclohexyl)ethyl methyl ether]", "values": [{"measurement": "sensory effects when used instead of 1-menthyl methyl ether", "value": "Comparable effects"}]}, {"compound": "C=C(C)C1CCC(C)CC1OC", "note": "(stereo not drawn) [isopulegyl methyl ether, Isopulegyl methyl ether]", "values": [{"measurement": "sensory effects when used instead of 1-menthyl methyl ether", "value": "Comparable effects"}]}, {"compound": "COC1CC(C)CC(C)(C)C1", "note": "(stereo not drawn) [3,3,5-trimethylcyclohexyl methyl ether]", "values": [{"measurement": "sensory effects when used instead of 1-menthyl methyl ether", "value": "Comparable effects"}]}]}
